From patent publication US6737383B1, “Herbicidal oxadiazolidines” (priority 1999, dated 2004)

Experiments:
bedstraw = test: Test B pre/postemergence bedstraw; format: in vivo, Galium aparine
How it was run: (§1)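 Response is a visual 0-to-10 score relative to untreated plants, where 0 means no effect and 10 means complete control, taken twelve to sixteen days after application. Treatments went onto soil at planting and onto foliage of 1- to 4-leaf plants, using a surfactant-containing non-phytotoxic solvent.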

blackgrass = test: Test B pre/postemergence blackgrass; format: in vivo, Alopecurus myosuroides
How it was run: as §1

surinam grass = test: Test B pre/postemergence surinam grass; format: in vivo, Brachiaria decumbens
How it was run: as §1

cocklebur = test: Test B pre/postemergence cocklebur; format: in vivo, Xanthium strumarium
How it was run: as §1

corn = test: Test B pre/postemergence corn; format: in vivo, Zea mays
How it was run: as §1

crabgrass = test: Test B pre/postemergence crabgrass; format: in vivo, Digitaria sanguinalis
How it was run: as §1

giant foxtail = test: Test B pre/postemergence giant foxtail; format: in vivo, Setaria faberii
How it was run: as §1

rape = test: Test B pre/postemergence rape; format: in vivo, Brassica napus
How it was run: as §1

soybean = test: Test B pre/postemergence soybean; format: in vivo, Glycine max
How it was run: as §1

sugar beet = test: Test B pre/postemergence sugar beet; format: in vivo, Beta vulgaris
How it was run: as §1

velvetleaf = test: Test B pre/postemergence velvetleaf; format: in vivo, Abutilon theophrasti
How it was run: as §1

wheat = test: Test B pre/postemergence wheat; format: in vivo, Triticum aestivum
How it was run: as §1

purple nutsedge = test: Test B pre/postemergence purple nutsedge; format: in vivo, Cyperus rotundus
How it was run: as §1

rice = test: Test B flood test rice; format: in vivo, Oryza sativa
How it was run: (§2)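 Read-out is a visual response score from 0 (no effect) to 10 (complete control), assigned by comparison with untreated controls. Treatment was applied at the 2-leaf stage, and plants stayed in the greenhouse for twelve to sixteen days before scoring.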

smallflower flatsedge = test: Test B flood test smallflower flatsedge; format: in vivo, Cyperus difformis
How it was run: as §2

duck salad = test: Test B flood test duck salad; format: in vivo, Heteranthera limosa
How it was run: as §2

bamyardgrass = test: Test B flood test barnyardgrass; format: in vivo, Echinochloa crus-galli
How it was run: as §2

[1] = Postemergence, Rate 62 g/ha, scale 0 to 10, 0 is no effect, 10 is complete control
[2] = Postemergence, Rate 250 g/ha, scale 0 to 10, 0 no effect, 10 complete control
[3] = Preemergence, Rate 62 g/ha, scale 0 to 10 (0 no effect, 10 complete control)
[4] = Preemergence, Rate 125 g/ha, scale 0 to 10 (0 no effect, 10 complete control)
[5] = Preemergence, Rate 250 g/ha, scale of 0 to 10 where 0 is no effect and 10 is complete control
[6] = Preemergence, Rate 500 g/ha, scale 0 (no effect) to 10 (complete control)
[7] = Rate 125 g/ha, Postemergence, scale 0 to 10, 0 no effect, 10 complete control
[8] = Rate 500 g/ha, Postemergence, scale 0 to 10, 0 no effect, 10 complete control
[9] = Rate 125 g/ha, Postemergence section (flood test species), scale 0 to 10, 0 no effect, 10 complete control
[10] = Rate 250 g/ha, headed Pre-emergence (flood test species), scale 0 to 10 (0 no effect, 10 complete control)
[11] = Rate 500 g/ha, headed Pre-emergence (flood test species), scale 0 to 10 (0 no effect, 10 complete control)
[12] = Rate 500 g/ha, listed under Postemergence (flood test species), scale 0 to 10, 0 no effect, 10 complete control
[13] = Rate 1000 g/ha, Pre-emergence (as headed), scale 0 to 10
[14] = Rate 2000 g/ha, Pre-emergence (as headed), scale 0 to 10
[15] = flood test, listed under Postemergence, Rate 250 g/ha, scale 0 to 10, 0 no effect, 10 complete control

CC(C)N(C(=O)n1oc(=O)n(Cc2ccccc2)c1=O)c1ccc(F)cc1 [Compound 78]
Bedstraw plant response rating (bedstraw; [1]): 0 | Bedstraw plant response rating (bedstraw; [2]): 4 | Bedstraw plant response rating (bedstraw; [3]): 0 | Plant response rating, Bedstraw (bedstraw; [4]): 0 | Plant response rating, Bedstraw (bedstraw; [5]): 0 | Bedstraw plant response rating (bedstraw; [6]): 0 | Bedstraw plant response rating (bedstraw; [7]): 0 | Bedstraw plant response rating (bedstraw; [8]): 8 | Blackgrass plant response rating (blackgrass; [1]): 0 | Blackgrass plant response rating (blackgrass; [2]): 3 | Blackgrass plant response rating (blackgrass; [3]): 2 | Plant response rating, Blackgrass (blackgrass; [4]): 4 | Plant response rating, Blackgrass (blackgrass; [5]): 4 | Blackgrass plant response rating (blackgrass; [6]): 6 | Blackgrass plant response rating (blackgrass; [7]): 3 | Blackgrass plant response rating (blackgrass; [8]): 7 | B. signalgrass plant response rating (surinam grass; [1]): 0 | B. signalgrass plant response rating (surinam grass; [2]): 4 | B. signalgrass plant response rating (surinam grass; [3]): 0 | Plant response rating, B. signalgrass (surinam grass; [4]): 1 | Plant response rating, B. signalgrass (surinam grass; [5]): 5 | B. signalgrass plant response rating (surinam grass; [6]): 9 | B. signalgrass plant response rating (surinam grass; [7]): 0 | B. signalgrass plant response rating (surinam grass; Rate 500 g/ha, Postemergence, scale of 0 to 10 where 0 is no effect and 10 is complete control): 6 | Cocklebur plant response rating (cocklebur; [2]): 2 | Cocklebur plant response rating (cocklebur; [3]): 0 | Plant response rating, Cocklebur (cocklebur; [4]): 0 | Plant response rating, Cocklebur (cocklebur; [5]): 0 | Cocklebur plant response rating (cocklebur; [6]): 0 | Cocklebur plant response rating (cocklebur; [7]): 2 | Cocklebur plant response rating (cocklebur; [8]): 3 | Corn plant response rating (corn; [1]): 0 | Corn plant response rating (corn; [2]): 0 | Corn plant response rating (corn; [3]): 0 | Plant response rating, Corn (corn; [4]): 0 | Plant response rating, Corn (corn; [5]): 0 | Corn plant response rating (corn; [6]): 0 | Corn plant response rating (corn; [7]): 0 | Corn plant response rating (corn; [8]): 0 | Crabgrass plant response rating (crabgrass; [1]): 0 | Crabgrass plant response rating (crabgrass; [2]): 5 | Crabgrass plant response rating (crabgrass; [3]): 7 | Plant response rating, Crabgrass (crabgrass; [4]): 9 | Plant response rating, Crabgrass (crabgrass; [5]): 9 | Crabgrass plant response rating (crabgrass; [6]): 10 | Crabgrass plant response rating (crabgrass; [7]): 2 | Crabgrass plant response rating (crabgrass; [8]): 9 | Giant foxtail plant response rating (giant foxtail; [1]): 0 | Giant foxtail plant response rating (giant foxtail; [2]): 3 | Giant foxtail plant response rating (giant foxtail; [3]): 8 | Plant response rating, Giant foxtail (giant foxtail; [4]): 8 | Plant response rating, Giant foxtail (giant foxtail; [5]): 9 | Giant foxtail plant response rating (giant foxtail; [6]): 9 | Giant foxtail plant response rating (giant foxtail; [7]): 3 | Giant foxtail plant response rating (giant foxtail; [8]): 4 | Rape plant response rating (rape; [1]): 0 | Rape plant response rating (rape; [2]): 2 | Rape plant response rating (rape; [3]): 0 | Plant response rating, Rape (rape; [4]): 0 | Plant response rating, Rape (rape; [5]): 5 | Rape plant response rating (rape; [6]): 5 | Rape plant response rating (rape; [7]): 0 | Rape plant response rating (rape; [8]): 4 | Soybean plant response rating (soybean; [1]): 1 | Soybean plant response rating (soybean; [2]): 2 | Soybean plant response rating (soybean; [3]): 0 | Plant response rating, Soybean (soybean; [4]): 0 | Plant response rating, Soybean (soybean; [5]): 0 | Soybean plant response rating (soybean; [6]): 0 | Soybean plant response rating (soybean; [7]): 1 | Soybean plant response rating (soybean; [8]): 4 | Sugarbeets plant response rating (sugar beet; [1]): 2 | Sugarbeets plant response rating (sugar beet; [2]): 4 | Sugarbeets plant response rating (sugar beet; [3]): 0 | Plant response rating, Sugarbeets (sugar beet; [4]): 0 | Plant response rating, Sugarbeets (sugar beet; [5]): 5 | Sugarbeets plant response rating (sugar beet; [6]): 5 | Sugarbeets plant response rating (sugar beet; [7]): 4 | Sugarbeets plant response rating (sugar beet; [8]): 7 | Velvetleaf plant response rating (velvetleaf; [1]): 2 | Velvetleaf plant response rating (velvetleaf; [2]): 3 | Velvetleaf plant response rating (velvetleaf; [3]): 0 | Plant response rating, Velvetleaf (velvetleaf; [4]): 0 | Plant response rating, Velvetleaf (velvetleaf; [5]): 2 | Velvetleaf plant response rating (velvetleaf; [6]): 7 | Velvetleaf plant response rating (velvetleaf; [7]): 2 | Velvetleaf plant response rating (velvetleaf; [8]): 4 | Wheat plant response rating (wheat; [1]): 0 | Wheat plant response rating (wheat; [2]): 0 | Wheat plant response rating (wheat; [3]): 0 | Plant response rating, Wheat (wheat; [4]): 0 | Plant response rating, Wheat (wheat; [5]): 3 | Wheat plant response rating (wheat; [6]): 3 | Wheat plant response rating (wheat; [7]): 0 | Wheat plant response rating (wheat; [8]): 0 | Nutsedge plant response rating (purple nutsedge; [1]): 0 | Nutsedge plant response rating (purple nutsedge; [2]): 0 | Nutsedge plant response rating (purple nutsedge; [3]): 0 | Plant response rating, Nutsedge (purple nutsedge; [4]): 0 | Plant response rating, Nutsedge (purple nutsedge; [5]): 0 | Nutsedge plant response rating (purple nutsedge; [6]): 0 | Nutsedge plant response rating (purple nutsedge; [7]): 0 | Nutsedge plant response rating (purple nutsedge; [8]): 0 | Rice plant response rating (rice; [1]): 0 | Rice plant response rating (rice; [9]): 0 | Rice plant response rating (rice; [10]): 0 | Plant response rating, Rice (rice; [11]): 0 | Rice plant response rating (rice; [12]): 2 | Rice plant response rating (rice; [13]): 0 | Rice plant response rating (rice; [14]): 0 | Rice plant response rating (rice; [15]): 0 | S. Flatsedge plant response rating (smallflower flatsedge; [1]): 0 | S. Flatsedge plant response rating (smallflower flatsedge; Pre-emergence, Rate 1000 g/ha, scale 0 to 10 (0 no effect, 10 complete control)): 0 | S. Flatsedge plant response rating (smallflower flatsedge; [9]): 0 | S. Flatsedge plant response rating (smallflower flatsedge; [10]): 0 | Plant response rating, S. Flatsedge (smallflower flatsedge; [11]): 0 | S. Flatsedge plant response rating (smallflower flatsedge; [12]): 4 | S. Flatsedge plant response rating (smallflower flatsedge; [14]): 7 | S. Flatsedge plant response rating (smallflower flatsedge; [15]): 0 | Ducksalad plant response rating (duck salad; [1]): 0 | Ducksalad plant response rating (duck salad; [9]): 0 | Ducksalad plant response rating (duck salad; [10]): 0 | Plant response rating, Ducksalad (duck salad; [11]): 0 | Ducksalad plant response rating (duck salad; [12]): 0 | Ducksalad plant response rating (duck salad; [13]): 0 | Ducksalad plant response rating (duck salad; [14]): 0 | Ducksalad plant response rating (duck salad; [15]): 0 | Barnyardgrass plant response rating (bamyardgrass; [1]): 0 | Barnyardgrass plant response rating (bamyardgrass; [9]): 0 | Barnyardgrass plant response rating (bamyardgrass; [10]): 0 | Plant response rating, Barnyardgrass (bamyardgrass; [11]): 0 | Barnyardgrass plant response rating (bamyardgrass; [12]): 7 | Barnyardgrass plant response rating (bamyardgrass; [13]): 0 | Barnyardgrass plant response rating (bamyardgrass; Rate 2000 g/ha, Pre-emergence (as headed), scale 0 to 10, 0 no effect, 10 complete control): 3 | Barnyardgrass plant response rating (bamyardgrass; [15]): 3
